Results on 16 molecules are retold here after patent US11142515B2, “Pyrazolyl-ureas as kinase inhibitors” (RESPIVERT LIMITED, priority 2014, dated 2021).

Assay [1] addresses T1, p38 MAPKα isoform (MAPK14) (Homo sapiens, UniProt Q16539).
T1 construct: purchased Life Technologies
The assay is described as follows: p38 MAPKα enzyme inhibition (Z-LYTE FRET). To be noted: Table 2B, unit inferred; read-out: p38 MAPKα (Enzyme Profile). It is filed as biochemical. A digest of the protocol: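 Activity was measured indirectly as phosphorylation of a MAPKAP-K2-derived FRET peptide. Enzyme (added at 40 ng/mL) was preincubated 2 h at RT with compound (added solutions 40–0.0012 μg/mL).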

In assay [2] the target is T2, p38MAPKγ (MAPK12) (Homo sapiens, UniProt P53778).
T2 construct: purchased Life Technologies
T2 sequence (P53778 1-367): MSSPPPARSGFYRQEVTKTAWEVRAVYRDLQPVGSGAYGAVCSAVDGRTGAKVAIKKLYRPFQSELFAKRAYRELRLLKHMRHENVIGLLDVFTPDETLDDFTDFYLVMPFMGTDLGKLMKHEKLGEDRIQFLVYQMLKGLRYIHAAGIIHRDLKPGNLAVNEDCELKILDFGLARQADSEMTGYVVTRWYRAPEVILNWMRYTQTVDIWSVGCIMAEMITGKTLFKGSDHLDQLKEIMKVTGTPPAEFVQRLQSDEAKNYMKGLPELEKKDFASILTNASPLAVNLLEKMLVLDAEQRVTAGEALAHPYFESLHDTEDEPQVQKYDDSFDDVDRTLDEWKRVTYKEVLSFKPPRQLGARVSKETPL
The assay is described as follows: p38 MAPKγ enzyme inhibition (Z-LYTE FRET). It is filed as biochemical. The note with it: Table 2B, unit inferred; read-out: p38 MAPKγ (Enzyme Profile). A digest of the protocol:
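Enzyme (added at 800 ng/mL) was preincubated 2 h at RT with compound (solutions of 40 to 0.0012 μg/mL), then FRET peptide (8 μM) and ATP (400 μM), both as added, were reacted 1 h at RT. Protease development followed for 1 h; phosphorylation was read as the coumarin/fluorescein emission ratio.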

Bounds are passed on as bounds.

T1 sequence (Q16539 whole entry, canonical isoform): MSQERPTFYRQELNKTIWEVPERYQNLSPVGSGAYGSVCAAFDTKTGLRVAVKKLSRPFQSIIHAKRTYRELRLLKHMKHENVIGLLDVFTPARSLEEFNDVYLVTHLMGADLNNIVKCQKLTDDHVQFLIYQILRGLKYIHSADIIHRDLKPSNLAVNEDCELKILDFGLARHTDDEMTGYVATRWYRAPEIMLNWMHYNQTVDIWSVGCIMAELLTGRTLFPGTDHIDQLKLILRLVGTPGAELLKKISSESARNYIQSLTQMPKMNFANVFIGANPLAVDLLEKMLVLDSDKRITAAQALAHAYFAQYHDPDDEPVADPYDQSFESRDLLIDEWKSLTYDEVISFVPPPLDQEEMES

In the case of `COCc1cnc(Nc2cc(COc3ccc(NC(=O)Nc4cc(C(C)(C)C)nn4-c4ccc(C)cc4)c4ccccc34)ccn2)cn1` [Example 190, 1-(3-(tert-butyl)-1-(p-tolyl)-1H-pyrazol-5-yl)-3-(4-((2-((5-(methoxymethyl)pyrazin-2-yl)amino)pyridin-4-yl)methoxy)naphthalen-1-yl) urea], the IC50 in assay [1] is 23 nM; in assay [2], 232 nM.
On the same counts, the results for `CCNC(=O)c1cnc(Nc2cc(COc3ccc(NC(=O)Nc4cc(C(C)(C)C)nn4-c4ccc(C)cc4)c4ccccc34)ccn2)cn1` [Example 191, 5-((4-(((4-(3-(3-(tert-butyl)-1-(p-tolyl)-1H-pyrazol-5-yl)ureido)naphthalen-1-yl)oxy)methyl)pyridin-2-yl)amino)-N-ethylpyrazine-2-carboxamide] are 47 nM and 460 nM.
In the same order, the values of `CCCNC(=O)c1cnc(Nc2cc(COc3ccc(NC(=O)Nc4cc(C(C)(C)C)nn4-c4ccc(C)cc4)c4ccccc34)ccn2)cn1` [Example 192, 5-((4-(((4-(3-(3-(tert-butyl)-1-(p-tolyl)-1H-pyrazol-5-yl)ureido)naphthalen-1-yl)oxy)methyl)pyridin-2-yl)amino)-N-propylpyrazine-2-carboxamide] are 46 nM and over 14600 nM.
In the same order, the values of `Cc1ccc(-n2nc(C(C)(C)C)cc2NC(=O)Nc2ccc(OCc3ccnc(Nc4cnc(C(=O)N5CC(F)C5)cn4)c3)c3ccccc23)cc1` [Example 193, 1-(3-(tert-butyl)-1-(p-tolyl)-1H-pyrazol-5-yl)-3-(4-((2-((5-(3-fluoroazetidine-1-carbonyl)pyrazin-2-yl)amino)pyridin-4-yl)methoxy)naphthalen-1-yl)urea] are 89 nM and over 14300 nM.
`CCCc1cncc(Nc2cc(COc3ccc(NC(=O)Nc4cc(C(C)(C)C)nn4-c4ccc(C)c(F)c4)c4ccccc34)ccn2)n1` [Example 194, 1-(3-(tert-butyl)-1-(3-fluoro-4-methylphenyl)-1H-pyrazol-5-yl)-3-(4-((2-((6-propyl-pyrazin-2-yl)amino)pyridin-4-yl)methoxy)naphthalen-1-yl)urea]: the figures for the IC50 in assay [1] and in assay [2] were 207 nM and 8410 nM, respectively.
In the same order, the values of `COCc1cnc(Nc2cc(COc3ccc(NC(=O)Nc4cc(C(C)(C)C)nn4-c4cccc(C)c4)c4ccccc34)ccn2)cn1` [Example 195, 1-(3-(tert-butyl)-1-(m-tolyl)-1H-pyrazol-5-yl)-3-(4-((2-((5-(methoxymethyl)pyrazin-2-yl)amino)pyridin-4-yl)methoxy)naphthalen-1-yl) urea] are 15 nM and 245 nM.
On the same counts, the results for `COc1cc(C)cc(-n2nc(C(C)(C)C)cc2NC(=O)Nc2ccc(OCc3ccnc(Nc4cnccn4)c3)c3ccccc23)c1` [Example 196, 1-(3-(tert-butyl)-1-(3-methoxy-5-methylphenyl)-1H-pyrazol-5-yl)-3-(4-((2-(pyrazin-2-ylamino)pyridin-4-yl)methoxy)naphthalen-1-yl)urea] are 29 nM and 219 nM.
On the same counts, the results for `CCOc1ccc(-n2nc(C(C)(C)C)cc2NC(=O)Nc2ccc(OCc3ccnc(Nc4cnccn4)c3)c3ccccc23)cc1C` [Example 197, 1-(3-(tert-butyl)-1-(4-ethoxy-3-methylphenyl)-1H-pyrazol-5-yl)-3-(4-((2-(pyrazin-2-ylamino)pyridin-4-yl)methoxy)naphthalen-1-yl)urea] are 37 nM and over 15600 nM.
As for `Cc1ccc(-n2nc(C(C)(C)C)cc2NC(=O)Nc2ccc(OCc3ccnc(Nc4cnccn4)c3)c3ccccc23)cn1` [Example 198, 1-(3-(tert-butyl)-1-(6-methylpyridin-3-yl)-1H-pyrazol-5-yl)-3-(4-((2-(pyrazin-2-ylamino)pyridin-4-yl)methoxy)naphthalen-1-yl)urea], the IC50 in assay [1] was determined as 10 nM; in assay [2] it was 111 nM.
In the same order, the values of `CO[C@@H]1CCN(C(=O)c2cnc(Nc3cc(COc4ccc(NC(=O)Nc5cc(C(C)(C)C)nn5-c5cccc(C)c5)c5ccccc45)ccn3)cn2)C1` [Example 199, (R)-1-(3-(tert-butyl)-1-(m-tolyl)-1H-pyrazol-5-yl)-3-(4-((2-((5-(3-methoxy-pyrrolidine-1-carbonyl)pyrazin-2-yl)amino)pyridin-4-yl)methoxy)naphthalen-1-yl)urea] are 11 nM and over 13800 nM.
In the same order, the values of `CO[C@H]1CCN(C(=O)c2cnc(Nc3cc(COc4ccc(NC(=O)Nc5cc(C(C)(C)C)nn5-c5cccc(C)c5)c5ccccc45)ccn3)cn2)C1` [Example 200, (S)-1-(3-(tert-butyl)-1-(m-tolyl)-1H-pyrazol-5-yl)-3-(4-((2-((5-(3-methoxy-pyrrolidine-1-carbonyl)pyrazin-2-yl)amino)pyridin-4-yl)methoxy)naphthalen-1-yl)urea] are 13 nM and 1240 nM.
In the same order, the values of `CCCc1cncc(Nc2cc(COc3ccc(NC(=O)Nc4cc(C(C)(C)C)nn4-c4cccc(C)c4)c4ccccc34)ccn2)n1` [Example 201, 1-(3-(tert-butyl)-1-(m-tolyl)-1H-pyrazol-5-yl)-3-(4-((2-((6-propylpyrazin-2-yl)amino)pyridin-4-yl)methoxy)naphthalen-1-yl)urea] are 112 nM and 7900 nM.
Turning to `CC(C)(C)c1cc(NC(=O)Nc2ccc(OCc3ccnc(Nc4cnc(C(=O)N5CCCC5)cn4)c3)c3ccccc23)n(-c2cccc(F)c2)n1` [Example 202, 1-(3-(tert-butyl)-1-(3-fluorophenyl)-1H-pyrazol-5-yl)-3-(4-((2-((5-(pyrrolidine-1-carbonyl)pyrazin-2-yl)amino)pyridin-4-yl)methoxy)naphthalen-1-yl)urea], the IC50 was determined as 19 nM in assay [1] and 1130 nM in assay [2].
For `COCc1cnc(Nc2cc(COc3ccc(NC(=O)Nc4cc(C(C)(C)C)nn4-c4cccc(F)c4)c4ccccc34)ccn2)cn1` [Example 203, 1-(3-(tert-butyl)-1-(3-fluorophenyl)-1H-pyrazol-5-yl)-3-(4-((2-((5-(methoxymethyl)pyrazin-2-yl)amino)pyridin-4-yl)methoxy)naphthalen-1-yl) urea], the IC50 is 17 nM in assay [1] and 250 nM in assay [2].
On the same counts, the results for `CNC(=O)c1cnc(Nc2cc(COc3ccc(NC(=O)Nc4cc(C(C)(C)C)nn4-c4cccc(C)c4)c4ccccc34)ccn2)cn1` [Example 204, 5-((4-(((4-(3-(3-(tert-butyl)-1-(m-tolyl)-1H-pyrazol-5-yl)ureido)naphthalen-1-yl)oxy)methyl)pyridin-2-yl)amino)-N-methylpyrazine-2-carboxamide] are 16 nM and 330 nM.
For `COCCN(C)C(=O)c1cnc(Nc2cc(COc3ccc(NC(=O)Nc4cc(C(C)(C)C)nn4-c4cccc(C)c4)c4ccccc34)ccn2)cn1` [Example 205, 5-((4-(((4-(3-(3-(tert-butyl)-1-(m-tolyl)-1H-pyrazol-5-yl)ureido)naphthalen-1-yl)oxy)methyl)pyridin-2-yl)amino)-N-(2-methoxyethyl)-N-methylpyrazine-2-carboxamide], the IC50 is 13 nM in assay [1] and 263 nM in assay [2].
